pIC50: −log10 of the molar value. Where two headings read alike, the source gives them in different places. Values belong to the compound of their own block, whether it stands above or below them.
How the values were obtained:
[1] = target: T1, cytoplasmic domain (amino acids 1058-1620) of wild-type human ALK (Homo sapiens, UniProt Q9UM73); assay: ALK inhibition in enzyme assay (Lance TR-FRET); format: biochemical
T1 construct: cytoplasmic domain (amino acids 1058-1620) of wild-type human ALK; GST (N); made in house; host or cells: SF9 cells

RET(Y791F) = RET(Y791F) (Homo sapiens, UniProt P07949, Y791F); assay: Off-chip mobility shift kinase assay, RET [Y791F]; format: biochemical; conditions: CSKtide 1000 nM, ATP 25 μM, Mg 5 mM
RET = RET (Homo sapiens, UniProt P07949); assay: Off-chip mobility shift kinase assay, RET; format: biochemical; conditions: CSKtide 1000 nM, ATP 10 μM, Mg 5 mM
RET(G691S) = RET(G691S) (Homo sapiens, UniProt P07949, G691S); assay: Off-chip mobility shift kinase assay, RET [G691S]; format: biochemical; conditions: CSKtide 1000 nM, ATP 10 μM, Mg 5 mM
TRKC = TRKC (Homo sapiens, UniProt Q16288); assay: Off-chip mobility shift kinase assay, TRKC; format: biochemical; conditions: Srctide 1000 nM, ATP 50 μM, Mg 5 mM
FLT3 = target: T2, FLT3 (Homo sapiens, UniProt P36888); assay: Off-chip mobility shift kinase assay, FLT3; format: biochemical; conditions: Srctide 1000 nM, ATP 100 μM, Mg 5 mM
T2 sequence (P36888 27-993): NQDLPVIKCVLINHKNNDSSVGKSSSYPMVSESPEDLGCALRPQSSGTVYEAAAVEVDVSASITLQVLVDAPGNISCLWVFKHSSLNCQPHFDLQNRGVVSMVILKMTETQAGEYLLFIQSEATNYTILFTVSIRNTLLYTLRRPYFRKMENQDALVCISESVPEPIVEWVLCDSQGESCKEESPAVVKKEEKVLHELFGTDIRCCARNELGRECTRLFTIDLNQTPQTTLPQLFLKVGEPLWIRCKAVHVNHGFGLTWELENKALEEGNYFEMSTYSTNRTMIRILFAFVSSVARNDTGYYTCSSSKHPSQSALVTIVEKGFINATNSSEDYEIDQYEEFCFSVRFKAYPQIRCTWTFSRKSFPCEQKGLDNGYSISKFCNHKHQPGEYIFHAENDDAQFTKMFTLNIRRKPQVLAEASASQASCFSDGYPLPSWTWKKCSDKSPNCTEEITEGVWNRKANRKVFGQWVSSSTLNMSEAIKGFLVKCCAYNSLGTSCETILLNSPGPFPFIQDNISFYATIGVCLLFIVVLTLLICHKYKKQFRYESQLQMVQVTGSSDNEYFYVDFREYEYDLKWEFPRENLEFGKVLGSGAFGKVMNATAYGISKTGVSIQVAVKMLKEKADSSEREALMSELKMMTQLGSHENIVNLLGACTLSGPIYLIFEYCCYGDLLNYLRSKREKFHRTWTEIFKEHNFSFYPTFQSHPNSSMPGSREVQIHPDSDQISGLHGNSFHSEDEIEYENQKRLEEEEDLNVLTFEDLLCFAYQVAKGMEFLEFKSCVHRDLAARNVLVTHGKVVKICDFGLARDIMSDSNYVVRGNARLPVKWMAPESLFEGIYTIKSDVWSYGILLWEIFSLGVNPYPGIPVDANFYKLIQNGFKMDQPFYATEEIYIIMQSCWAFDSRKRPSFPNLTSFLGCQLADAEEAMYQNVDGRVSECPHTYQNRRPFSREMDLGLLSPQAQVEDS

FAK = FAK (Homo sapiens, UniProt Q05397); assay: Off-chip mobility shift kinase assay, FAK; format: biochemical; conditions: Blk/Lyntide 1000 nM, ATP 25 μM, Mg 5 mM
KDR = KDR (Homo sapiens, UniProt P35968); assay: Off-chip mobility shift kinase assay, KDR; format: biochemical; conditions: CSKtide 1000 nM, ATP 75 μM, Mg 5 mM
TRKA = TRKA (Homo sapiens, UniProt P04629); assay: Off-chip mobility shift kinase assay, TRKA; format: biochemical; conditions: CSKtide 1000 nM, ATP 75 μM, Mg 5 mM
RET(M918T) = RET(M918T) (Homo sapiens, UniProt P07949, M918T); assay: Off-chip mobility shift kinase assay, RET [M918T]; format: biochemical; conditions: CSKtide 1000 nM, ATP 5 μM, Mg 5 mM
EGFR(T790M) = EGFR(T790M) (Homo sapiens, UniProt P00533, T790M); assay: Off-chip mobility shift kinase assay, EGFR [T790M]; format: biochemical; conditions: Srctide 1000 nM, ATP 1 μM, Mg + Mn 5 + 1 mM
FLT1 = FLT1 (Homo sapiens, UniProt P17948); assay: Off-chip mobility shift kinase assay, FLT1; format: biochemical; conditions: CSKtide 1000 nM, ATP 150 μM, Mg 5 mM, reaction time 5 hours
RET(S 891A) = RET(S 891A) (Homo sapiens, UniProt P07949, S891A); assay: Off-chip mobility shift kinase assay, RET [S891A]; format: biochemical; conditions: CSKtide 1000 nM, ATP 10 μM, Mg 5 mM
FLT4 = FLT4 (Homo sapiens, UniProt P35916); assay: Off-chip mobility shift kinase assay, FLT4; format: biochemical; conditions: CSKtide 1000 nM, ATP 75 μM, Mg 5 mM
TRKB = TRKB (Homo sapiens, UniProt Q16620); assay: Off-chip mobility shift kinase assay, TRKB; format: biochemical; conditions: Srctide 1000 nM, ATP 75 μM, Mg 5 mM
NGF = target: T3, NGF (Homo sapiens, UniProt P01138); conditions: osteoarthritis pain study, cited from earlier work
T3 construct: host or cells: patients (endogenous NGF)

pIC50 [1]: > 7.30
Compound: COC(=O)[C@H]1CC[C@@H](n2/c(=N/C(=O)c3ccc(F)cc3)[nH]c3cnc(CN4CCOCC4)cc32)CC1 [Example 85]

pIC50 [1]: > 7.30
Compound: CC(C)NC(=O)[C@H]1CC[C@@H](N2c3cc(O)ccc3NC2NC(=O)c2ccc(F)cc2)CC1 (stereo partly drawn) [Example 154]

pIC50 [1]: > 7.30
Compound: CC(C)NC(=O)[C@H]1CC[C@@H](n2/c(=N/C(=O)c3cccc(F)c3)[nH]c3cnc(OCCN4CCC(C(C)(C)O)CC4)cc32)CC1 [Example 130]

pIC50 (RET(Y791F)): < 6.00 | pIC50 (RET): < 6.00 | pIC50 (RET(G691S)): < 6.00 | pIC50 (TRKC): 7.00 to 9.00 | pIC50 (FLT3): 7.00 to 9.00 | pIC50 (FAK): 6.30 to 7.00 | pIC50 (KDR): < 6.00 | pIC50 (TRKA): 7.00 to 9.00 | pIC50 (RET(M918T)): < 6.00 | pIC50 (EGFR(T790M)): < 6.00 | pIC50 (FLT1): < 6.00 | pIC50 (RET(S 891A)): 6.30 to 7.00 | pIC50 (FLT4): < 6.00 | pIC50 (TRKB): 7.00 to 9.00
Compound: CC(C)NC(=O)[C@H]1CC[C@@H](n2/c(=N/C(=O)c3cc(F)cc(F)c3)[nH]c3ccc(CN4CCC(C(C)(C)O)CC4)cc32)CC1 [I-b]

Compound: tanezumab
adverse event: headache (NGF; among patients): 9% | adverse event: paresthesia (NGF; among patients): 7% | adverse event: upper respiratory infection (NGF; among patients): 7% | rate of adverse events (NGF; 55% in placebo group): 68%

pIC50 [1]: 7.00 to 7.30
Compound: CC(=O)N[C@H]1CC[C@H](n2/c(=N/C(=O)c3cccc(F)c3)[nH]c3ccc(CN4CCC(C(C)(C)O)CC4)cc32)CC1 [Example 229]

pIC50 ([1]; 2 nM enzyme, ATP 40 μM (Km apparent), 90 minutes, mean of three replicates): 7.00 to 7.30
Compound: CCCNS(=O)(=O)c1cccc(C(=O)/N=c2\[nH]c3cnc(OCCN4CCCCC4)cc3n2C2CCC(C(N)=O)CC2)c1 (stereo not drawn) [Example 244]

pIC50 [1]: 6.00 to 7.00
Compound: C=CCNS(=O)(=O)c1cccc(C(=O)/N=c2\[nH]c3cnc(OCCN4CCC(C(C)(C)O)CC4)cc3n2[C@H]2CC[C@H](C(=O)NC(C)C)CC2)c1 [Example 131]

pIC50 [1]: 5.30 to 6.00
Compound: CNC(=O)[C@]1(O)CC[C@@H](n2/c(=N/C(=O)c3ccc(F)cc3)[nH]c3cnc(OCCN4CCCCC4)cc32)CC1 [Example 82]

pIC50 [1]: 6.00 to 7.00
Compound: CNC(=O)[C@]1(O)CC[C@H](n2/c(=N/C(=O)c3ccc(F)cc3)[nH]c3cnc(OCCN4CCCCC4)cc32)CC1 [Example 83]

pIC50 [1]: 5.30 to 6.00
Compound: CCOC(=O)[C@H]1CC[C@@H](n2/c(=N/C(=O)c3cccc(F)c3)[nH]c3cnc(OCCN4CCC(C(C)(C)O)CC4)cc32)CC1 [Example 79]

pIC50 [1]: 7.00 to 7.30
Compound: CC(C)NC(=O)[C@H]1CC[C@@H](n2/c(=N/Cc3ccc4ccsc4c3)[nH]c3cnc(OCCN4CCCCC4)cc32)CC1 [Example 87]

pIC50 [1]: 6.00 to 7.00
Compound: O=C(/N=c1\[nH]c2cnc(OCCN3CCCCC3)cc2n1[C@H]1CC[C@@H](C(=O)N2CCNCC2)CC1)c1ccc(F)cc1 [Example 124]

pIC50 [1]: > 7.30
Compound: CC(C)N(C)C(=O)[C@H]1CC[C@@H](n2/c(=N/C(=O)c3ccc(F)cc3)[nH]c3cnc(CN4CCCCC4)cc32)CC1 [Example 46]

pIC50 [1]: > 7.30
Compound: CC(C)NC(=O)[C@H]1CC[C@@H](n2/c(=N/C(=O)c3ccc(F)c(C#N)c3)[nH]c3ccc(CN4CCC(C(C)(C)O)CC4)cc32)CC1 [Example 146]

pIC50 [1]: > 7.30
Compound: CC(C)NC(=O)[C@H]1CC[C@@H](n2/c(=N/C(=O)c3ccc(F)cc3)[nH]c3ccc(CN4CCN(S(=O)(=O)O)CC4)cc32)CC1 [Example 172]

pIC50 [1]: 7.00 to 7.30
Compound: CC(C)C(=O)N[C@H]1CC[C@@H](n2/c(=N/C(=O)c3ccc(F)cc3)[nH]c3cnc(CN4CCC(C(C)(C)O)CC4)cc32)CC1 [Example 227]

pIC50 [1]: 5.30 to 6.00
Compound: CC(=O)[C@H]1CC[C@@H](n2/c(=N/C(=O)c3cccc(F)c3)[nH]c3ccc(CO)cc32)CC1 [Example 70]

pIC50 [1]: > 7.30
Compound: CC(C)NC(=O)[C@H]1CC[C@@H](n2/c(=N/C(=O)c3ccc(F)cc3)[nH]c3ccc(CN4CCN(C(N)=O)CC4)cc32)CC1 [Example 177]

pIC50 (RET(Y791F)): 7.00 to 9.00 | pIC50 (RET): 7.00 to 9.00 | pIC50 (RET(G691S)): 7.00 to 9.00 | pIC50 (TRKC): 7.00 to 9.00 | pIC50 (FAK): 7.00 to 9.00 | pIC50 (KDR): < 6.00 | pIC50 (TRKA): > 9.00 | pIC50 (RET(M918T)): 7.00 to 9.00 | pIC50 (EGFR(T790M)): < 6.00 | pIC50 (FLT1): < 6.00 | pIC50 (RET(S 891A)): 7.00 to 9.00 | pIC50 (FLT4): < 6.00 | pIC50 (TRKB): 7.00 to 9.00
Compound: CC(C)NC(=O)[C@H]1CC[C@@H](n2/c(=N/C(=O)c3ccc(F)cc3)[nH]c3ccc(CN4CCC(C(C)(C)O)CC4)cc32)CC1 [I-a]

— patent US20150306086A1, “MODULATING CERTAIN TYROSINE KINASES” (Tesaro, Inc., priority 2011, published 2015)
